Source: US4732970A, “Antitumor amino acid and peptide derivatives of 1,4-bis(aminoalkyl and hydroxy-aminoalkyl)amino)-5,8-dihydroxyanthraquinones” (priority 1986, dated 1988)

System: lymphocytic leukemia P388
Test: Lymphocytic Leukemia P388 Test
Format: in vivo, BDF1 mice
Conditions: for Median Survival: BDF1 mice; for T/C × 100 (%): ratio of survival time treated/control
Method: The animals used were BDF1 mice, all of one sex, weighing a minimum of 18 g and all within a 3 g weight range. There were 5 or 6 mice per test group. The tumor transplant was by intraperitoneal injection of 0.5 ml of dilute ascitic fluid containing 10^6 cells of lymphocytic leukemia P388. The test compounds were administered intraperitoneally on days 1, 5 and 9 (relative to tumor inocu-lation) at various doses. The animals were weighed and survivors recorded on a regular basis for 60 days. The median survival time and the ratio of survival time for treated (T)/control (C) animals were calculated.

[1] = dose 0.75 mg/kg intraperitoneally on days 1, 5 and 9
[2] = dose 1.5 mg/kg intraperitoneally on days 1, 5 and 9
[3] = dose 3 mg/kg intraperitoneally on days 1, 5 and 9

Row | SMILES | Median Survival [1] [days] | T/C × 100 (%) [1] [%] | Median Survival [2] [days] | T/C × 100 (%) [2] [%] | Median Survival [3] [days] | T/C × 100 (%) [3] [%]
1 | CC(C)(C)OC(=O)N[C@@H](CO)C(=O)NCCNc1ccc(NCCNC(=O)[C@H](CO)NC(=O)OC(C)(C)C)c2c1C(=O)c1c(O)ccc(O)c1C2=O (relative stereo) [Example 14, [S-(R*,R*)]-N,N'-[(9,10-Dihydro-5,8-dihydroxy-9,10-dioxo-1,4-anthracenediyl)bis[imino-2,1-ethanediylimino-[1-(hydroxymethyl)-2-oxo-2,1-ethanediyl]]]bis-carbamic acid, bis(1,1-dimethylethyl)ester] | 13.5 | 123 | 16.0 | 145 | 17.5 | 159
2 | Cl.Cl.N[C@@H](Cc1ccccc1)C(=O)NCCNc1ccc(NCCNC(=O)[C@@H](N)Cc2ccccc2)c2c1C(=O)c1c(O)ccc(O)c1C2=O (relative stereo) [Example 17, [S-(R*,R*)]-N,N'-[(9,10-Dihydro-5,8-dihydroxy-9,10-dioxo-1,4-anthracenediyl)bis(imino-2,1-ethanediyl)]bis[2-aminobenzenepropanamide], dihydrochloride] | 22.5 | 188 | 23.0 | 192 | 19.5 | 163
3 | CC[C@H](C)[C@H](N)C(=O)NCCNc1ccc(NCCNC(=O)[C@@H](N)[C@@H](C)CC)c2c1C(=O)c1c(O)ccc(O)c1C2=O.Cl.Cl (relative stereo) [Example 21, [S-(R*,R*,R*,R*)]-N,N'-[(9,10-Dihydro-5,8-dihydroxy-9,10-dioxo-1,4-anthracenediyl)bis(imino-2,1-ethanediyl)]bis-[2-amino-3-methylpentanamide], dihydrochloride] | 18.5 | 185 | 18.0 | 180 | 22.5 | 225
4 | CSCC[C@H](N)C(=O)NCCNc1ccc(NCCNC(=O)[C@@H](N)CCSC)c2c1C(=O)c1c(O)ccc(O)c1C2=O.Cl.Cl (relative stereo) [Example 22, [S-(R*,R*)]N,N'(9,10-Dihydro-5,8-dihydroxy-9,10-dioxo-1,4-anthracenediyl)bis(imino-2,1-ethanediyl)]-bis[2-amino-4-(methylthio)butanamide], dihydrochloride] | 17.0 | 170 | 20.5 | 205 | 25.5 | 255
5 | CC(C)[C@H](N)C(=O)NCCNc1ccc(NCCNC(=O)[C@@H](N)C(C)C)c2c1C(=O)c1c(O)ccc(O)c1C2=O.Cl.Cl (relative stereo) [Example 24, [S-(R*,R*)]-N,N'-[(9,10-Dihydro-5,8-dihydroxy-9,10-dioxo-1,4-anthracenediyl)bis(imino-2,1-ethanediyl)]bis-[2-Amino-3-methylbutanamide], dihydrochloride] | 18.5 | 185 | 20.0 | 200 | 20.0 | 200
6 | CC(C)C[C@@H](N)C(=O)N(CCO)CCNc1ccc(NCCN(CCO)C(=O)[C@H](N)CC(C)C)c2c1C(=O)c1c(O)ccc(O)c1C2=O.O=C(O)C(F)(F)F.O=C(O)C(F)(F)F.O=C(O)C(F)(F)F (relative stereo) [Example 29, [R-(R*,R*)]-N,N'-[(9,10-Dihydro-5,8-dihydroxy-9,10-dioxo-1,4-anthracenediyl)bis(imino-2,1-ethanediyl)]bis-[2-amino-N-(2-hydroxyethyl)-4-methylpentanamide]tris(trifluoroacetate)] | 12.0 | 109 | 13.0 | 118 | 15.5 | 141
7 | Br.Br.N[C@@H](CS)C(=O)NCCNc1ccc(NCCNC(=O)[C@@H](N)CS)c2c1C(=O)c1c(O)ccc(O)c1C2=O (relative stereo) [Example 35, R-(R*,R*)]-N,N'-[(9,10-Dihydro-5,8-dihydroxy-9,10-dioxo-1,4-anthracenediyl)bis(imino-2,1-ethanediyl)]bis[2-amino-3-mercaptopropanamide], dihydrobromide] | 21.0 | 210 | 23.0 | 230 | 24.5 | 245
8 | N[C@@H](CO)C(=O)NCCNc1ccc(NCCNC(=O)[C@@H](N)CO)c2c1C(=O)c1c(O)ccc(O)c1C2=O.O=C(O)C(F)(F)F.O=C(O)C(F)(F)F (relative stereo) [Example 36, [S-(R*,R*)]-N,N'-(9,10-Dihydro-5,8-dihydroxy-9,10-dioxo-1,4-anthracenediyl)bis(imino-2,1-ethanediyl)]bis[2-amino-3-hydroxyropanamide]bis(trifluoroacetate)] | 19.0 | 173 | 19.0 | 173 | 23.5 | 214
9 | Cl.Cl.N[C@@H](Cc1ccc(O)cc1)C(=O)NCCNc1ccc(NCCNC(=O)[C@@H](N)Cc2ccc(O)cc2)c2c1C(=O)c1c(O)ccc(O)c1C2=O (relative stereo) [Example 37, [S-(R*,R*)]-N,N'-[(9,10-Dihydro-5,8-dihydroxy-9,10-dioxo-1,4anthracenediyl)bis(imino-2,1-ethanediyl)]bis-[2,-amino-3-(4-hydroxyphenyl)-propanamide, dihydrochloride] | 25.0 | 227 | 23.5 | 214 | 23.5 | 214
10 | CC(C)(C)OC(=O)C[C@H](NC(=O)OCC1c2ccccc2-c2ccccc21)C(=O)NCCNc1ccc(NCCNC(=O)[C@H](CC(=O)OC(C)(C)C)NC(=O)OCC2c3ccccc3-c3ccccc32)c2c1C(=O)c1c(O)ccc(O)c1C2=O (relative stereo) [Example 38, [S-R*,R*)]-4,4'-[(9,10-Dihydro-5,8-dihydroxy-D9,10-dioxo-1,4-anthracenediyl)bis(imino-2,1-ethanediylimino)]bis[3-[[9H-fluoren-9-ylmethoxycarbonyl]amino]-4-oxobut anoic acid],bis(1,1-dimethyl)ester] | 13.0 | 108 | 15.0 | 125 | 16.0 | 133
11 | CC(C)(C)OC(=O)C[C@H](N)C(=O)NCCNc1ccc(NCCNC(=O)[C@@H](N)CC(=O)OC(C)(C)C)c2c1C(=O)c1c(O)ccc(O)c1C2=O (relative stereo) [Example 39, [S-(R*,R*)]-4,4'-[(9,10-Dihydro-5,8-dihydroxy-9,10-dioxo-1,4-anthracenediyl)bis(imino-2,1-ethanediylimino)]bis[3-amino-4-oxobutanoic acid]bis(1,1-dimethylethyl)ester] | 21.5 | 179 | 19.5 | 163 | 19.0 | 158
12 | N[C@@H](CC(=O)O)C(=O)NCCNc1ccc(NCCNC(=O)[C@@H](N)CC(=O)O)c2c1C(=O)c1c(O)ccc(O)c1C2=O.O=C(O)C(F)(F)F.O=C(O)C(F)(F)F (relative stereo) [Example 40, S-(R*,R*)]-4,4'-[(9,10-Dihydro-5,8-dihydroxy-9,10-dioxo-1,4-anthracenediyl)bis(imino-2,1-ethanediylimino)]bis[3amino-4-oxobutanoic acid]bis(trifluoroacetate)] | 23.0 | 192 | 19.5 | 163 | 23.0 | 192
13 | CC(C)(C)OC(=O)N[C@@H](COCc1ccccc1)C(=O)NCCNc1ccc(NCCNC(=O)[C@H](COCc2ccccc2)NC(=O)OC(C)(C)C)c2c1C(=O)c1c(O)ccc(O)c1C2=O (relative stereo) [Example 41, S-(R*,R*)]-N,N'-[(9,10-Dihydro-5,8-dihydroxy-9,10-dioxo-1,4-anthracenediyl)bis[imino-2,1-ethanediylimino-[2-oxo-1-[(phenylmethoxy)methyl]-2,1-ethanediyl]]]biscarbamic acid, bis(1,1-dimethylethyl)ester] | 12.0 | 120 | 13.5 | 135 | 15.5 | 155
14 | N[C@@H](COCc1ccccc1)C(=O)NCCNc1ccc(NCCNC(=O)[C@@H](N)COCc2ccccc2)c2c1C(=O)c1c(O)ccc(O)c1C2=O.O=C(O)C(F)(F)F.O=C(O)C(F)(F)F (relative stereo) [Example 42, [S-(R*,R*)]-N,N'-[(9,10-Dihydro-5,8-dihydroxy-9,10-dioxo-1,4-anthracenediyl)bis[imino-2,1-ethanediyl)]bis[2-amino-3-(phenylmethoxy)-propanamide]bis(trifluoroacetate)] | 19.5 | 195 | 21.5 | 215 | 19.5 | 195
